{"source": "patent US12697328B2", "about": "“Methods for treating metastasis with cathepsin C inhibitors” (Shanghai Institute of Nutrition and Health, Chinese Academy …, priority 2020, dated 2026)", "key": {"[1]": {"system": "CTSC-overexpressing AT3 cancer cells", "assay": "Brensocatib treatment of mice after orthotopic injection of CTSC-overexpressing AT3 cancer cells", "format": "in vivo, C57/BL6 mice", "settings": "brensocatib 5 mg/kg orally twice daily", "experimental": "Female BALB/c and athymic mice aged 6-10 weeks were used in all animal experiments. […] For EdU labeling assays, nude mice were intravenously injected with 2×10^5 cancer cells, followed by intraperitoneal (i.p.) injection of 100 ng/mouse EdU (ThermoFisher, C10640) 24 h before lung harvest. […] For Sivelestat or DNase I treatment, mice were i.p. injected with Sivelestat (50 mg/kg) or DNase I (5 mg/kg) 2 h before cancer cell injection, followed by daily injection of the reagents for 9 days, and then maintenance shots twice a week. For GSK484 treatment, mice were treated with GSK484 (20 mg/kg, i.p. daily shots for 20 days from day 7, and then maintenance shots every two days) following orthotopic injection of AT3 or 4T07 cells. For IL-1b blocking or IL6R/CCR1 inhibition assays, mice were orthotopically inoculated with 5×10^4 AT3 and treated with i.p. administration of IgG or the IL-1β blocking antibody (100 μg per mouse), or the IL6R blocking antibody (100 μg per mouse) and the CCR1 inhibitor BX471 (20 mg/kg), every two days from day 7 until the mice were sacrificed. For brensocatib treatment, BALB/c mice were orthotopically inoculated with 1×10^5 4T1 cells, and C57/BL6 mice were orthotopically inoculated with 2×10^5 AT3. Vehicle controls (0.5% HPMC, 0.1% Tween 80 in 0.1 M citrate buffer, pH 3) and brensocatib (5 mg/kg) were administered orally twice daily until the mice were sacrificed. Orthotopic tumors were surgically removed at the size of about 1 cm^3. […] For TSP-1 degradation assays, mice were i.p. injected with GSK484 (20 mg/kg) 2 h before cancer cell injection and followed by daily treatment. Then, the lungs were perfused with 50 ml of pre-chilled PBS through the right ventricle until they were cleared of blood at 72 h post injection of 3×10^6 AT3 or 4T07 cells. BLI was acquired with NightOWL II LB983 Imaging System (Bert-hold) and IVIS Spectrum CT (PerkinElmer). All animal studies were conducted according to the guidelines for the care and use of laboratory animals and were approved by the Institutional Animal Care and Use Committee of Shanghai Institute of Nutrition and Health."}, "neutrophils": {"system": "neutrophils", "assay": "Formation of NETs in neutrophils stimulated by cancer cell conditioned medium (immunofluorescence, MPO and Ci-H3)", "format": "cell-based, mice", "settings": "CM of lung-/liver-metastatic breast cancer and bone-metastatic lung cancer cells, with or without brensocatib; FIGS. 11D, F, I", "experimental": "To isolate neutrophil from bone marrow, bone marrow cells from 8 to 12-weeks-old BALB/c mice were harvested in sterile Hank's buffered salt solution (HBSS) without Ca^2+/Mg^2+ (14185052, Invitrogen), and laid on top of a 2-layer Percoll (17089102, GE Healthcare) gradient (72% and 63.5% in HBSS), followed by centrifugation at 1,200 g for 30 min at 25° C. Neutrophils enriched in the interface of 63.5%-72% fractions were confirmed to be of >95% purity by flow cytometry analysis. To isolate neutrophils from peripheral blood of mice, whole blood was collected via cardiac puncture (1 ml per animal) and suspended in HBSS (2 ml per animal) with 15 mM EDTA. After centrifugation (400 g, 10 min, 4° C.), white cells were resuspended in 2 ml HBSS with 2 mM EDTA. […] The purity of the isolated neutrophils was determined by May-Grunwald-Giemsa staining (40751ES02, Yea-sen). […]\nTo assess NET formation, neutrophils (2.5×10^5 cells) were seeded on coverslips coated with poly-L-lysine (P4707, Sigma) in 24-well plates for 30 min before adding 10% cancer cell CM, Sivelestat (10 μM), PMA (20 nM, Sigma), Cl-amidine (100 μM, Selleck) and/or DNase I (1 μg/ml). […] NET area quantification was performed using the DANA method (Rebernick et al., “DNA area and NETosis analysis (DANA): a high-throughput method to quantify neutrophil extracellular traps in fluorescent microscope images,” Biol. Proced. Online 20:7 (2018)). […]"}}}
{"smiles": "Cn1c(=O)oc2ccc(-c3ccc(C[C@@H](C#N)NC(=O)[C@@H]4CNCCCO4)cc3)cc21", "note": "[brensocatib, (2S)—N-{(1S)-1-cyano-2-[4-(3-methyl-2-oxo-2,3-dihydro-1,3-benzoxazol-5-yl)phenyl]ethyl}-1,4-oxazepane-2-carboxamide]", "values": [{"measurement": "survival rate", "setting": "[1]; FIG. 10J", "value": "significant increase"}, {"measurement": "circulating levels of IL-1β", "setting": "[1]; FIG. 10K", "value": "decrease"}, {"measurement": "circulating NETs", "setting": "[1]; FIGS. 10G-I", "value": "Decreases"}, {"measurement": "lung metastases", "setting": "[1]; FIGS. 10G-I", "value": "Decreases"}, {"measurement": "lung metastatic nodule formation", "setting": "[1]; FIGS. 10G-I", "value": "Decreases"}, {"measurement": "neutrophil migration", "setting": "[1]; FIGS. 10G-I", "value": "Decreases"}, {"measurement": "formation of NETs", "setting": "neutrophils", "value": "significantly reduced"}]}
